Key:
Assay in all cases: relative viability vs DMSO control (72 h) (fraction); higher = more viable cells
[1] = system: SW872
Summary of the method: (§1)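 After seeding at densities set for 80–90% confluence in 384-well plates, sarcoma cell lines waited 24 h before 2.5 µl of serially diluted compound was added. Source plates held 10 mM down to 0.0002 mM. Plates were incubated 72 h at 37 °C with 5% CO2, with 0.1% DMSO vehicle and a 5 µM positive control, and relative viability was taken from ATPLite as percent growth averaged over up to triplicate wells, with 1 set as full and 0 as none.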

[2] = system: KHOS-240S
Summary of the method: as §1

[3] = system: SK-LMS-1
Summary of the method: as §1

[4] = system: SW1353
Summary of the method: as §1

[5] = system: RD-ES
Summary of the method: as §1

[6] = system: HT1080
Summary of the method: as §1

[7] = system: RD
Summary of the method: as §1

[8] = system: SYO-1
Summary of the method: as §1

[9] = system: G401
Summary of the method: as §1

[10] = system: HS729
Summary of the method: as §1

[11] = system: SW684
Summary of the method: as §1

[12] = system: KHOS-NP
Summary of the method: as §1

CN(C)C(=O)c1cc2cnc(Nc3ccc(N4CCNCC4)cn3)nc2n1C1CCCC1 [Ribociclib]
Details	relative viability
[1], 0.00017 µM	1.03
[1], 0.00051 µM	1.01
[1], 0.00152 µM	1.02
[1], 0.00457 µM	1.02
[1], 0.01372 µM	1.02
[1], 0.04115 µM	0.996
[1], 0.1235 µM	0.959
[1], 0.3704 µM	0.938
[1], 1.111 µM	0.946
[1], 3.333 µM	0.818
[1], 10 µM	0.713
[2], 0.00017 µM	1.08
[2], 0.00051 µM	1.07
[2], 0.00152 µM	1.08
[2], 0.00457 µM	1.1
[2], 0.01372 µM	1.06
[2], 0.04115 µM	1.08
[2], 0.1235 µM	1.04
[2], 0.3704 µM	1.05
[2], 1.111 µM	1
[2], 3.333 µM	0.891
[2], 10 µM	0.784
[3], 0.00017 µM	1.05
[3], 0.00051 µM	1.05
[3], 0.00152 µM	1.12
[3], 0.00457 µM	1.08
[3], 0.01372 µM	1.09
[3], 0.04115 µM	1.11
[3], 0.1235 µM	1.06
[3], 0.3704 µM	1.01
[3], 1.111 µM	0.99
[3], 3.333 µM	0.952
[3], 10 µM	0.9041
[4], 0.00017 µM	1.01
[4], 0.00051 µM	1
[4], 0.00152 µM	0.974
[4], 0.00457 µM	0.985
[4], 0.01372 µM	0.992
[4], 0.04115 µM	0.961
[4], 0.1235 µM	0.921
[4], 0.3704 µM	0.918
[4], 1.111 µM	0.901
[4], 3.333 µM	0.802
[4], 10 µM	0.858
[5], 0.00017 µM	0.9605
[5], 0.00051 µM	0.9809
[5], 0.00152 µM	0.959
[5], 0.00457 µM	0.985
[5], 0.01372 µM	0.926
[5], 0.04115 µM	0.9
[5], 0.1235 µM	0.845
[5], 0.3704 µM	0.773
[5], 1.111 µM	0.735
[5], 3.333 µM	0.602
[5], 10 µM	0.546
[6], 0.00017 µM	1.08
[6], 0.00051 µM	1.11
[6], 0.00152 µM	1.08
[6], 0.00457 µM	1.08
[6], 0.01372 µM	1.05
[6], 0.04115 µM	1.08
[6], 0.1235 µM	1.1
[6], 0.3704 µM	1.09
[6], 1.111 µM	1.12
[6], 3.333 µM	1.09
[6], 10 µM	0.978
[7], 0.00017 µM	1.13
[7], 0.00051 µM	1.06
[7], 0.00152 µM	1.08
[7], 0.00457 µM	1.12
[7], 0.01372 µM	1.09
[7], 0.04115 µM	1.05
[7], 0.1235 µM	1.04
[7], 0.3704 µM	1.06
[7], 1.111 µM	0.995
[7], 3.333 µM	0.915
[7], 10 µM	0.87
[8], 0.00017 µM	0.96
[8], 0.00051 µM	0.956
[8], 0.00152 µM	0.96
[8], 0.00457 µM	0.937
[8], 0.01372 µM	0.923
[8], 0.04115 µM	0.87
[8], 0.1235 µM	0.814
[8], 0.3704 µM	0.772
[8], 1.111 µM	0.705
[8], 3.333 µM	0.598
[8], 10 µM	0.523
[9], 0.00017 µM	0.987
[9], 0.00051 µM	0.968
[9], 0.00152 µM	1.02
[9], 0.00457 µM	0.983
[9], 0.01372 µM	0.97
[9], 0.04115 µM	0.899
[9], 0.1235 µM	0.898
[9], 0.3704 µM	0.886
[9], 1.111 µM	0.846
[9], 3.333 µM	0.794
[9], 10 µM	0.774
[10], 0.00017 µM	0.88
[10], 0.00051 µM	0.877
[10], 0.00152 µM	0.878
[10], 0.00457 µM	0.893
[10], 0.01372 µM	0.905
[10], 0.04115 µM	0.915
[10], 0.1235 µM	0.928
[10], 0.3704 µM	0.875
[10], 1.111 µM	0.89
[10], 3.333 µM	0.87
[10], 10 µM	0.869
[11], 0.00017 µM	1.16
[11], 0.00051 µM	1.16
[11], 0.00152 µM	1.14
[11], 0.00457 µM	1.15
[11], 0.01372 µM	1.13
[11], 0.04115 µM	1.15
[11], 0.1235 µM	1.15
[11], 0.3704 µM	1.14
[11], 1.111 µM	1.17
[11], 3.333 µM	1.1
[11], 10 µM	1.05
[12], 0.00017 µM	1.08
[12], 0.00051 µM	1.07
[12], 0.00152 µM	1.06
[12], 0.00457 µM	1.07
[12], 0.01372 µM	1.06
[12], 0.04115 µM	1.07
[12], 0.1235 µM	1.07
[12], 0.3704 µM	1.08
[12], 1.111 µM	1.08
[12], 3.333 µM	1.08
[12], 10 µM	1.03

O=C(/C=C\n1cnc(-c2cc(C(F)(F)F)cc(C(F)(F)F)c2)n1)NNc1cnccn1 [Selinexor]
Details	relative viability
[1], 0.00017 µM	1.065
[1], 0.00051 µM	1.07
[1], 0.00152 µM	1.075
[1], 0.00457 µM	1.07
[1], 0.01372 µM	1.06
[1], 0.04115 µM	0.989
[1], 0.1235 µM	0.823
[1], 0.3704 µM	0.752
[1], 1.111 µM	0.537
[1], 3.333 µM	0.365
[1], 10 µM	0.306
[2], 0.00017 µM	1.08
[2], 0.00051 µM	1.11
[2], 0.00152 µM	1.08
[2], 0.00457 µM	1.08
[2], 0.01372 µM	1.07
[2], 0.04115 µM	0.845
[2], 0.1235 µM	0.511
[2], 0.3704 µM	0.249
[2], 1.111 µM	0.188
[2], 3.333 µM	0.0642
[2], 10 µM	0.0639
[3], 0.00017 µM	1.03
[3], 0.00051 µM	1.03
[3], 0.00152 µM	0.98
[3], 0.00457 µM	0.95
[3], 0.01372 µM	0.856
[3], 0.04115 µM	0.736
[3], 0.1235 µM	0.512
[3], 0.3704 µM	0.319
[3], 1.111 µM	0.241
[3], 3.333 µM	0.246
[3], 10 µM	0.234
[4], 0.00017 µM	1.11
[4], 0.00051 µM	1.06
[4], 0.00152 µM	1.12
[4], 0.00457 µM	1.05
[4], 0.01372 µM	1.03
[4], 0.04115 µM	0.999
[4], 0.1235 µM	0.883
[4], 0.3704 µM	0.792
[4], 1.111 µM	0.672
[4], 3.333 µM	0.616
[4], 10 µM	0.511
[5], 0.00017 µM	0.988
[5], 0.00051 µM	1.02
[5], 0.00152 µM	0.993
[5], 0.00457 µM	0.972
[5], 0.01372 µM	0.949
[5], 0.04115 µM	0.825
[5], 0.1235 µM	0.705
[5], 0.3704 µM	0.602
[5], 1.111 µM	0.5
[5], 3.333 µM	0.3989
[5], 10 µM	0.334
[6], 0.00017 µM	1.11
[6], 0.00051 µM	1.14
[6], 0.00152 µM	1.13
[6], 0.00457 µM	1.11
[6], 0.01372 µM	1.082
[6], 0.04115 µM	1.088
[6], 0.1235 µM	0.814
[6], 0.3704 µM	0.375
[6], 1.111 µM	0.3301
[6], 3.333 µM	0.2689
[6], 10 µM	0.2291
[7], 0.00017 µM	1.052
[7], 0.00051 µM	1.08
[7], 0.00152 µM	1.09
[7], 0.00457 µM	1.07
[7], 0.01372 µM	1.01
[7], 0.04115 µM	0.943
[7], 0.1235 µM	0.754
[7], 0.3704 µM	0.51007
[7], 1.111 µM	0.404
[7], 3.333 µM	0.304
[7], 10 µM	0.252
[8], 0.00017 µM	1.02
[8], 0.00051 µM	1.02
[8], 0.00152 µM	1.02
[8], 0.00457 µM	0.928
[8], 0.01372 µM	0.804
[8], 0.04115 µM	0.63
[8], 0.1235 µM	0.534
[8], 0.3704 µM	0.41
[8], 1.111 µM	0.25
[8], 3.333 µM	0.136
[8], 10 µM	0.0755
[9], 0.00017 µM	1.07
[9], 0.00051 µM	1.05
[9], 0.00152 µM	1.04
[9], 0.00457 µM	0.985
[9], 0.01372 µM	0.943
[9], 0.04115 µM	0.8726
[9], 0.1235 µM	0.743
[9], 0.3704 µM	0.463
[9], 1.111 µM	0.366
[9], 3.333 µM	0.272
[9], 10 µM	0.235
[10], 0.00017 µM	1.07
[10], 0.00051 µM	1.06
[10], 0.00152 µM	1.05
[10], 0.00457 µM	0.98
[10], 0.01372 µM	0.929
[10], 0.04115 µM	0.835
[10], 0.1235 µM	0.7742
[10], 0.3704 µM	0.741
[10], 1.111 µM	0.676
[10], 3.333 µM	0.602
[10], 10 µM	0.499
[11], 0.00017 µM	1.14
[11], 0.00051 µM	1.24
[11], 0.00152 µM	1.23
[11], 0.00457 µM	1.25
[11], 0.01372 µM	1.18
[11], 0.04115 µM	1.17
[11], 0.1235 µM	0.953
[11], 0.3704 µM	0.885
[11], 1.111 µM	0.819
[11], 3.333 µM	0.754
[11], 10 µM	0.686
[12], 0.00017 µM	1.09
[12], 0.00051 µM	1.12
[12], 0.00152 µM	1.131
[12], 0.00457 µM	1.13
[12], 0.01372 µM	1.12
[12], 0.04115 µM	1.05
[12], 0.1235 µM	0.727
[12], 0.3704 µM	0.238
[12], 1.111 µM	0.184
[12], 3.333 µM	0.0993
[12], 10 µM	0.0794
